In patent US8710246B2, “Substituted thiophene pentamers” (Biochromix Newco AB, priority 2008, dated 2014):
Entries after “also recorded” stand apart in the source; their conditions may differ.

Assays:
Aβ deposits = test: Long term in vivo effects on amyloid plaques in transgenic mice, cranial window, multiphoton spectroscopy; conditions: tail vein injection, 10 mg/kg
Description: This long lasting binding to the plaques is advantageous for a long term therapeutic effect of the inventive compounds.

[1] = test system: Human Aβ38, Aβ40 and Aβ42; test: 30 days treatment, human Aβ determinations in CSF and brain homogenate SDS fraction (Mesoscale immunosorbent assay); type: in vivo, mice
Protocol: (§1) Starting at 8 months of age, female hAPPSL mice were treated with vehicle only or p-FTAA in 3 dosages for 30 days. The Test Item (T.I.) p-FTAA was administered in 3 dosages in Vehicle. 48 hAPP Tg mice plus 4 reserves allocated to 4 different treatment groups were treated with either vehicle only (control) or with p-FTAA in dosages of 0.1 mg/kg/day, 1 mg/kg/day, or 10 mg/kg/day. As an additional control, 12 nTg littermates of the hAPPSL mice (plus 1 reserve) were treated with vehicle only. Vehicle and T.I.s were administered twice daily intra peritoneal (i.p.) for 30 days.
Human Aβ38, Aβ40 and Aβ42 were determined in homogenates of the left brain hemispheres and in CSF samples of all Tg animals by an immunosorbent assay from Mesoscale Discovery
48 hAPP Tg mice plus 4 reserves allocated to 4 different treatment groups were treated with either vehicle only (control) or p-FTAA. As an additional control, 12 nTg littermates of the hAPPSL mice (plus 1 reserve) were treated with vehicle only. Tg hAPPSL mice with a C57BL/6xDBA background and corresponding nTg littermates at an age of 8 months (±2 weeks) were randomly assigned to the treatment groups.
Left hemi-brain samples (without cerebellum) of Tg animals were homogenized and separated. SDS fraction was prepared, after thawing, hemispheres were homogenized with the Homogenizer “Ultra Turrax T8” at highest speed in TBS (20 mM Tris, 137 mM NaCl, pH=7.6; containing protease inhibitor cocktail; 100 mg brain wet weight per ml TBS). One aliquot (1 ml) was centrifuged (74,200×g for 1 h at 4° C.). The pellets were suspended in 1 ml SDS (2% SDS in Aqua bidest), centrifuged as above and the supernatants were kept at −20° C. (SDS fraction).
In the brain homogenate SDS fraction and in CSF of each Tg mouse, human Aβ38, Aβ40 and Aβ42 levels were measured with a Aβ-kit from Mesoscale Discovery. Aβ levels were evaluated in comparison to a peptide standard as pg/mg brain (wet weight) or pg/ml CSF.
Descriptive statistical analysis was performed on all evaluated parameters. Data were represented as mean±standard deviation (SD). Grubb's test was used to detect outliers. Normality distribution of the values was tested with Kolmogorov Smirnov normality distribution test. Group differences between all Tg groups were calculated by a parametric ANOVA followed by a Bonferroni post test.

Aβ38, Aβ40 or Aβ42 = test: 14 days treatment, DEA extraction of soluble amyloid beta from brain homogenates; type: in vivo; conditions: data not shown
Description: We also noted, data not shown, that p-FTAA treatment for 14 days, in 4 months old female […] transgenic mice, led to decreased Aβ38, Aβ40 or Aβ42 levels in the DEA Extraction of [soluble] Amyloid beta from brain homogenates.

hAPPSL transgenic mice = test: 30 days treatment, Morris Water Maze (MWM) test; type: in vivo; conditions: 10 mg/kg, ip 30 days, treatment days 24 to 27
Protocol: as §1
The MWM was performed during 4 days at the end of treatment period (treatment days 24 to 27). […]
The escape latency (the time needed to find the hidden platform and therefore to escape from the water), the swimming path (the length to reach the target), the swimming speed and in the probe trial crossings over the former platform position and the abidance in the target quadrant were evaluated. […]
Descriptive statistical analysis was performed on all evaluated parameters. […] Group differences were calculated by a parametric ANOVA followed by a Bonferroni post test or by a non-parametric Kruskal Wallis ANOVA followed by a Dunn's post test if Gaussian distribution was missing. Learning curves were evaluated by a Two-way ANOVA followed by a Bonferroni post test. […]

## O=C(O)Cc1cc(-c2ccc(C(=O)O)s2)sc1-c1ccc(-c2sc(-c3ccc(C(=O)O)s3)cc2CC(=O)O)s1 [Compound F]
Aβ deposits; one week after injection
  binding to Aβ deposits in living mouse brain one week after injection: binding of the inventive compounds to AP deposits could still be observed; also recorded: bound to Aβ deposits in living mouse brain one week after injection
Aβ deposits; transgenic mice with AD-like pathology
  crossing of the blood brain barrier after intravenous injection: readily cross the blood brain barrier
[1]; 0.1 mg/kg/day ip for 30 days
  Aβ38, Aβ40 and Aβ42 levels in CSF compared to vehicle: lower mean Aβ levels but statistical significance was observed for Aβ38 only
[1]; 1 mg/kg/day ip for 30 days
  Aβ38, Aβ40 and Aβ42 levels in CSF compared to vehicle: did not differ significantly from the vehicle control
[1]; 10 mg/kg/day ip for 30 days, 8 months old female hAPPSL mice, listed as p-FTAA
  Aβ38, Aβ40 and Aβ42 levels in CSF compared to vehicle: significantly decreased; also recorded: highly significant
[1]; 10 mg/kg/day ip for 30 days, listed as p-FTAA
  Aβ38, Aβ40 and Aβ42 levels in SDS brain homogenate fraction compared to vehicle: significantly decreased
Aβ38, Aβ40 or Aβ42; 4 months old female hAPPSL mice
  Aβ38, Aβ40 or Aβ42 levels in DEA extraction of soluble amyloid beta from brain homogenates: decreased
Aβ38, Aβ40 or Aβ42
  dose group with the strongest effect on DEA soluble Aβ: strongest for 10 mg/kg/day group
hAPPSL transgenic mice
  MWM performance in terms of the swimming path: better performance than any other Tg group
